From patent US20230021483A1, “[…] […] METHOD AND CLASSIFICATION OF PHARMACEUTICAL COMPONENTS BY USING TRANSCRIPTOMES” (National Institutes of Biomedical Innovation, Health and …, priority 2016, published 2023)

Tested on: preferentially upregulated genes in LV, SP, LN
Experiment: Z-score-based differential gene expression analysis (adjuvant group- or adjuvant-associated genes, 40 module mapping, TargetMine annotation)
Type: in vivo, C57BL/6 mice
Conditions: ID, LV
Source text: Each sample's FC value was converted into a z-score on a gene basis by using the entire data set for each organ. The Z-score of the triplicates of interest were summed for each adjuvant. For example, the three sample z-score in the LV sample following cdiGMP administration was summed on a gene-by-gene basis, after which the summed scores of >3 genes were selected as relatively preferentially expressed genes in the LV after cdiGMP administration. The following threshold was applied for selections. […] G2^LV: ALM_IP(z>1) & bCD(z>1) & ENDCN(z>1) & FCA(z>1). […] G4^LV: MALP2s(z>3). […] G2^SP: ENDCN_x2+ENDCN_x3(z>2) & ALM_IP(z>3) & bCD(z>3). […] G4^SP: ADX_ID_x2+ADX_ID_x3(z>2) & ADX_IP(z>3) & MALP2s(z>3). […] G2^LN: bCD(z>3) & FCA(z>3). […] G5^LN: K3(z>1.5) & K3SPG_x1+K3SPG_x2(z>1) & D35_x1+D35_x3(z>1). G6^LN: AddaVax(z>3).

Poly_IC
Adar 1425405_a_at (Group G1, Modules 20) (sample x1): 3.45
Adar 1434268_at (Group G1, Modules 20) (sample x1): 2.82
Ddx58 1436562_at (Group G1, Modules 20) (sample x1): 2.92
Ddx58 1456890_at (Group G1, Modules 20) (sample x1): 3.02
Eif2ak2 1422005_at (Group G1, Modules 20) (sample x1): 2.89
G3bp2 1421323_a_at (Group G1, Modules 20) (sample x1): 2.83
Gm9706///Isg15 1431591_s_at (Group G1, Modules 20) (sample x1): 3.28
H2-T10///H2-T22///H2-T9 1449875_s_at (Group G1, Modules 20) (sample x1): 2.89
Ifih1 1426276_at (Group G1, Modules 20) (sample x1): 3.06
Ifit1 1450783_at (Group G1, Modules 20) (sample x1): 2.54
Ifit3 1449025_at (Group G1, Modules 20) (sample x1): 3.24
Irf7 1417244_a_at (Group G1, Modules 20) (sample x1): 3.53
Irgm1 1418825_at (Group G1, Modules 20) (sample x1): 2.78
Mndal 1426906_at (Group G1, Modules 20) (sample x1): 3.14
Pml 1448757_at (Group G1, Modules 20) (sample x1): 3.58
Pml 1456103_at (Group G1, Modules 20) (sample x1): 3.26
Rnf213 1455500_at (Group G1, Modules 20) (sample x1): 2.64
Rsad2 1436058_at (Group G1, Modules 20) (sample x1): 3
Shisa5 1423986_a_at (Group G1, Modules 20) (sample x1): 2.5
Shisa5 1437503_a_at (Group G1, Modules 20) (sample x1): 2.49
Stat1 1450033_a_at (Group G1, Modules 20) (sample x1): 2.73
Stat1 1450034_at (Group G1, Modules 20) (sample x1): 2.89
Tdrd7 1426716_at (Group G1, Modules 20) (sample x1): 3.28
Tor1aip2 1418115_s_at (Group G1, Modules 20) (sample x1): 2.38
Tor1aip2 1418116_at (Group G1, Modules 20) (sample x1): 2.73
Tor1aip2 1435526_at (Group G1, Modules 20) (sample x1): 2.88
Trim12a 1437432_a_at (Group G1, Modules 20) (sample x1): 3.39
Uba7 1426970_a_at (Group G1, Modules 20) (sample x1): 3
Adar 1425405_a_at (Group G1, Modules 20) (sample x2): 2.75
Adar 1434268_at (Group G1, Modules 20) (sample x2): 2.17
Ddx58 1436562_at (Group G1, Modules 20) (sample x2): 2.82
Ddx58 1456890_at (Group G1, Modules 20) (sample x2): 2.77
Eif2ak2 1422005_at (Group G1, Modules 20) (sample x2): 2.87
G3bp2 1421323_a_at (Group G1, Modules 20) (sample x2): 2.85
Gm9706///Isg15 1431591_s_at (Group G1, Modules 20) (sample x2): 3.62
H2-T10///H2-T22///H2-T9 1449875_s_at (Group G1, Modules 20) (sample x2): 3.28
Ifih1 1426276_at (Group G1, Modules 20) (sample x2): 3.34
Ifit1 1450783_at (Group G1, Modules 20) (sample x2): 2.35
Ifit3 1449025_at (Group G1, Modules 20) (sample x2): 3.25
Irf7 1417244_a_at (Group G1, Modules 20) (sample x2): 3.38
Irgm1 1418825_at (Group G1, Modules 20) (sample x2): 2.84
Mndal 1426906_at (Group G1, Modules 20) (sample x2): 2.4
Pml 1448757_at (Group G1, Modules 20) (sample x2): 3.3
Pml 1456103_at (Group G1, Modules 20) (sample x2): 2.5
Rnf213 1455500_at (Group G1, Modules 20) (sample x2): 3.01
Rsad2 1436058_at (Group G1, Modules 20) (sample x2): 3.3
Shisa5 1423986_a_at (Group G1, Modules 20) (sample x2): 2.99
Shisa5 1437503_a_at (Group G1, Modules 20) (sample x2): 2.66
Stat1 1450033_a_at (Group G1, Modules 20) (sample x2): 2.67
Stat1 1450034_at (Group G1, Modules 20) (sample x2): 3.04
Tdrd7 1426716_at (Group G1, Modules 20) (sample x2): 3.24
Tor1aip2 1418115_s_at (Group G1, Modules 20) (sample x2): 2.68
Tor1aip2 1418116_at (Group G1, Modules 20) (sample x2): 2.94
Tor1aip2 1435526_at (Group G1, Modules 20) (sample x2): 2.62
Trim12a 1437432_a_at (Group G1, Modules 20) (sample x2): 3.59
Uba7 1426970_a_at (Group G1, Modules 20) (sample x2): 3.13
Adar 1425405_a_at (Group G1, Modules 20) (sample x3): 1.58
Adar 1434268_at (Group G1, Modules 20) (sample x3): 1.28
Ddx58 1436562_at (Group G1, Modules 20) (sample x3): 1.64
Ddx58 1456890_at (Group G1, Modules 20) (sample x3): 1.87
Eif2ak2 1422005_at (Group G1, Modules 20) (sample x3): 1.83
G3bp2 1421323_a_at (Group G1, Modules 20) (sample x3): 1.31
Gm9706///Isg15 1431591_s_at (Group G1, Modules 20) (sample x3): 2.13
H2-T10///H2-T22///H2-T9 1449875_s_at (Group G1, Modules 20) (sample x3): 2.21
Ifih1 1426276_at (Group G1, Modules 20) (sample x3): 2.12
Ifit1 1450783_at (Group G1, Modules 20) (sample x3): 1.28
Ifit3 1449025_at (Group G1, Modules 20) (sample x3): 1.95
Irf7 1417244_a_at (Group G1, Modules 20) (sample x3): 2.38
Irgm1 1418825_at (Group G1, Modules 20) (sample x3): 1.84
Mndal 1426906_at (Group G1, Modules 20) (sample x3): 2.37
Pml 1448757_at (Group G1, Modules 20) (sample x3): 2
Pml 1456103_at (Group G1, Modules 20) (sample x3): 2.12
Rnf213 1455500_at (Group G1, Modules 20) (sample x3): 1.47
Rsad2 1436058_at (Group G1, Modules 20) (sample x3): 1.97
Shisa5 1423986_a_at (Group G1, Modules 20) (sample x3): 1.61
Shisa5 1437503_a_at (Group G1, Modules 20) (sample x3): 1.52
Stat1 1450033_a_at (Group G1, Modules 20) (sample x3): 1.92
Stat1 1450034_at (Group G1, Modules 20) (sample x3): 1.94
Tdrd7 1426716_at (Group G1, Modules 20) (sample x3): 1.44
Tor1aip2 1418115_s_at (Group G1, Modules 20) (sample x3): 1.13
Tor1aip2 1418116_at (Group G1, Modules 20) (sample x3): 0.96
Tor1aip2 1435526_at (Group G1, Modules 20) (sample x3): 1.58
Trim12a 1437432_a_at (Group G1, Modules 20) (sample x3): 2.9
Uba7 1426970_a_at (Group G1, Modules 20) (sample x3): 1.71
